# Data: publication PMC11372076, “A dual inhibitor of PIP5K1C and PIKfyve prevents SARS-CoV-2 entry into cells” (Experimental & Molecular Medicine, 2024)
# How the values were obtained:
# [1] = test system: Omicron variant (BA.1) spike-pseudotyped virus; assay type: cell-based, SARS-CoV-2
# [2] = test system: Delta variant (B.1.617.2) spike-pseudotyped virus; assay type: cell-based, SARS-CoV-2
compound,measurement,setting,value
"c1ccc(-c2cc(Nc3nc(-c4ccncc4)nc4ccccc34)n[nH]2)cc1 [UNI418, N -(5-phenyl-1 H -pyrazol-3-yl)-2-(4-pyridinyl)-4-quinazolinamine]",pseudotyped virus entry,[1],markedly inhibited
same,pseudotyped virus entry,[2],markedly inhibited
